Measurements: patent US6352958B1, “Cycloimido-substituted benzofused heterocyclic herbicides” (FMC Corporation, priority 1997, dated 2002)

Assays:
Type in all cases: in vivo
[1] = system: soybean (Glycine max var. Winchester); assay: Preemergence herbicidal activity, soybean; conditions: Rate of Application 0.3 Kg/Ha, examined after 12-17 days
[2] = system: wheat (Triticum aestivum var. Lew); assay: Preemergence herbicidal activity, wheat; conditions: Rate of Application 0.3 Kg/Ha, examined after 12-17 days
[3] = system: field corn (Zea mays var. Pioneer 3732); assay: Preemergence herbicidal activity, corn; conditions: Rate of Application 0.3 Kg/Ha, examined after 12-17 days
[4] = system: velvetleaf (Abutilon theophrasti); assay: Preemergence herbicidal activity, velvetleaf; conditions: Rate of Application 0.3 Kg/Ha, examined after 12-17 days
[5] = system: morningglory (Ipomea lacunosa or Ipomea hederacea); assay: Preemergence herbicidal activity, morningglory; conditions: Rate of Application 0.3 Kg/Ha, examined after 12-17 days
[6] = system: common chickweed (Stellaria media); assay: Preemergence herbicidal activity, chickweed; conditions: Rate of Application 0.3 Kg/Ha, examined after 12-17 days
[7] = system: common cocklebur (Xanthium strumarium L.); assay: Preemergence herbicidal activity, cocklebur; conditions: Rate of Application 0.3 Kg/Ha, examined after 12-17 days
[8] = system: blackgrass (Aloepecurus myosuroides); assay: Preemergence herbicidal activity, blackgrass; conditions: Rate of Application 0.3 Kg/Ha, examined after 12-17 days
[9] = system: green foxtail (Setaria viridis); assay: Preemergence herbicidal activity, green foxtail; conditions: Rate of Application 0.3 Kg/Ha, examined after 12-17 days
[10] = system: Johnsongrass (Sorghum halepense); assay: Preemergence herbicidal activity, johnsongrass; conditions: Rate of Application 0.3 Kg/Ha, examined after 12-17 days
[11] = system: soybean (Glycine max var. Winchester); assay: Postemergence herbicidal activity, soybean; conditions: rate of application 0.3 Kg/Ha, rated after 12-17 days
[12] = system: wheat (Triticum aestivum var. Lew); assay: Postemergence herbicidal activity, wheat; conditions: rate of application 0.3 Kg/Ha, rated after 12-17 days
[13] = system: field corn (Zea mays var. Pioneer 3732); assay: Postemergence herbicidal activity, corn; conditions: rate of application 0.3 Kg/Ha, rated after 12-17 days
[14] = system: velvetleaf (Abutilon theophrasti); assay: Postemergence herbicidal activity, velvetleaf; conditions: rate of application 0.3 Kg/Ha, rated after 12-17 days
[15] = system: morningglory (Ipomea lacunosa or Ipomea hederacea); assay: Postemergence herbicidal activity, morningglory; conditions: rate of application 0.3 Kg/Ha, rated after 12-17 days
[16] = system: common chickweed (Stellaria media); assay: Postemergence herbicidal activity, chickweed; conditions: rate of application 0.3 Kg/Ha, rated after 12-17 days
[17] = system: common cocklebur (Xanthium strumarium L.); assay: Postemergence herbicidal activity, cocklebur; conditions: rate of application 0.3 Kg/Ha, rated after 12-17 days
[18] = system: blackgrass (Aloepecurus myosuroides); assay: Postemergence herbicidal activity, blackgrass; conditions: rate of application 0.3 Kg/Ha, rated after 12-17 days
[19] = system: green foxtail (Setaria viridis); assay: Postemergence herbicidal activity, green foxtail; conditions: rate of application 0.3 Kg/Ha, rated after 12-17 days
[20] = system: Johnsongrass (Sorghum halepense); assay: Postemergence herbicidal activity, johnsongrass; conditions: rate of application 0.3 Kg/Ha, rated after 12-17 days

Row | SMILES | PREEMERGENCE HERBICIDAL ACTIVITY (% CONTROL) SOY [1] | PREEMERGENCE HERBICIDAL ACTIVITY (% CONTROL) WHT [2] | PREEMERGENCE HERBICIDAL ACTIVITY (% CONTROL) CRN [3] | PREEMERGENCE HERBICIDAL ACTIVITY (% CONTROL) ABUTH [4] | PREEMERGENCE HERBICIDAL ACTIVITY (% CONTROL) IPOSS [5] | PREEMERGENCE HERBICIDAL ACTIVITY (% CONTROL) STEME [6] | PREEMERGENCE HERBICIDAL ACTIVITY (% CONTROL) XANPE [7] | PREEMERGENCE HERBICIDAL ACTIVITY (% CONTROL) ALOMY [8] | PREEMERGENCE HERBICIDAL ACTIVITY (% CONTROL) SETVI [9] | PREEMERGENCE HERBICIDAL ACTIVITY (% CONTROL) SORHA [10] | Postemergence herbicidal activity (% control) SOY [11] | Postemergence herbicidal activity (% control) WHT [12] | Postemergence herbicidal activity (% control) CRN [13] | Postemergence herbicidal activity (% control) ABUTH [14] | Postemergence herbicidal activity (% control) IPOSS [15] | Postemergence herbicidal activity (% control) STEME [16] | Postemergence herbicidal activity (% control) XANPE [17] | Postemergence herbicidal activity (% control) ALOMY [18] | Postemergence herbicidal activity (% control) SETVI [19] | Postemergence herbicidal activity (% control) SORHA [20]
1 | CCCc1nc2c(-n3c(=O)cc(C(F)(F)F)n(C)c3=O)c(F)cc(Cl)c2o1 [Compound 26] | 100% | 90% | 90% | 100% | 100% | 100% | 100% | 95% | 100% | 100% | 96% | 60% | 80% | 100% | 100% | 80% | 100% | 80% | 100% | 80%
2 | Cn1c(C(F)(F)F)cc(=O)n(-c2c(F)cc(Cl)c3[nH]c(C4CCCCC4)nc23)c1=O [Compound 373] | 100% | 70% | 90% | 100% | 100% | 100% | 100% | 70% | 100% | 90% | 100% | 80% | 100% | 100% | 100% | 100% | 100% | 100% | 100% | 100%
3 | Cn1c(C(F)(F)F)cc(=O)n(-c2c(F)cc(Br)c3oc(N)nc23)c1=O [Compound 98] | 50% | 40% | 80% | 80% | 75% | 70% | 60% | 10% | 30% | 65% | 40% | 10% | 50% | 60% | 20% | 5% | 20% | 5% | 40% | 20%
